Legend:
[1] = system: Farnesyl pyrophosphate synthase (Geobacillus stearothermophilus); assay: Percent inhibition against prenyltransferases of farnesyl diphosphate synthase (FPS) at concentration of 250 uM
[2] = system: Farnesyl pyrophosphate synthase (Geobacillus stearothermophilus); assay: Percent inhibition against prenyltransferases of farnesyl diphosphate synthase (FPS) at concentration of 125 uM
[3] = system: Geobacillus stearothermophilus; assay: Percent inhibition against prenyltransferases of Undecaprenyl pyrophosphate synthetase (UPS) at concentration of 32 uM
Micrococcus luteus [4] = assay: Percent inhibition against prenyltransferases of hexaprenyl diphosphate synthase (Hex PS) at concentration of 250 uM
[5] = Activity as substrate for Hex PS relative to control; format: functional
Micrococcus luteus [6] = assay: Percent inhibition against prenyltransferases of hexaprenyl diphosphate synthase (Hex PS) at concentration of 125 uM
[7] = system: Geobacillus stearothermophilus; assay: Percent inhibition against prenyltransferases of Undecaprenyl pyrophosphate synthetase (UPS) at concentration of 16 uM
Micrococcus luteus [8] = assay: Percent inhibition against prenyltransferases of hexaprenyl diphosphate synthase (Hex PS) at concentration of 50 uM
[9] = system: Geobacillus stearothermophilus; assay: Percent inhibition against prenyltransferases of Undecaprenyl pyrophosphate synthetase (UPS) at concentration of 125 uM
[10] = Activity as substrate for FPS relative to control; format: functional
[11] = system: Farnesyl pyrophosphate synthase (Geobacillus stearothermophilus); assay: Percent inhibition against prenyltransferases of farnesyl diphosphate synthase (FPS) at concentration of 50 uM
[12] = Activity at concentration of 250 uM relative to HexPS for 15 min; format: functional
[13] = Activity at concentration of 1428 uM relative to FPS for 30 min; format: functional
[14] = Activity at concentration of 357 uM relative to FPS for 30 min; format: functional
[15] = Activity at concentration of 714 uM relative to FPS for 30 min; format: functional
[16] = Activity as substrate for UPS relative to control; format: functional
[17] = Activity at concentration of 357 uM relative to FPS for 60 min; format: functional
[18] = Activity at concentration of 250 uM relative to HexPS for 5 min; format: functional
[19] = Activity at concentration of 125 uM relative to HexPS for 15 min; format: functional
[20] = Activity at concentration of 357 uM relative to FPS for 120 min; format: functional
[21] = Activity at concentration of 125 uM relative to HexPS for 5 min; format: functional
[22] = system: Farnesyl pyrophosphate synthase (Geobacillus stearothermophilus); assay: Percent inhibition against farnesyl diphosphate synthase (FPS) at concentration of 250 uM

inhibition [1] | inhibition [2] | inhibition [3] | inhibition (Micrococcus luteus [4]) | inhibition (Micrococcus luteus [6]) | inhibition [7] | inhibition (Micrococcus luteus [8]) | inhibition [9] | inhibition [11] | Compound | Relative activity [5] | Relative activity [10] | Relative activity [12] | Relative activity [13] | Relative activity [14] | Relative activity [15] | Relative activity [16] | Relative activity [17] | Relative activity [18] | Relative activity [19] | Relative activity [20] | other results
27.6% | 24.5% | 17.5% | 37% | 23.4% | 12.5% | 8.8% | 57% | – | C/C(=C\COP(=O)(O)OP(=O)(O)O)COc1ccc(C(=O)c2ccccc2)cc1 | 5.7 | 0.06 | – | – | – | – | – | – | – | – | – | –
95.5% | 94.4% | 53% | 86.4% | 49.5% | 29% | 14.4% | 63% | 84.4% | C/C(=C\COP(=O)(O)OP(=O)(O)O)CC/C=C(\C)COc1ccc(C(=O)c2ccccc2)cc1 | 46.4 | 0.78 | 4.3 | 36.2 | 67.3 | 64.4 | 49.1 | 48.1 | 9.8 | 9.2 | 17 | Relative activity [21]: 30.7
96.1% | 94.9% | 58% | 80.5% | 37% | 38% | 9.2% | 63% | 86% | C/C(=C\COP(=O)(O)OP(=O)(O)O)CC/C=C(\C)COc1cccc(C(=O)c2ccccc2)c1 | 21.6 | 1.83 | 1.9 | 75.9 | 62.2 | 61.2 | 55.7 | 66.6 | 5.5 | 10.8 | 37 | Relative activity [21]: 32.5
– | 14.6% | 22.5% | 10.6% | 3.5% | 12.5% | 3.1% | 68% | – | C/C(=C\COP(=O)(O)OP(=O)(O)O)COc1cccc(C(=O)c2ccccc2)c1 | 0 | 0.22 | – | – | – | – | – | – | – | – | – | inhibition [22]: 19.8%

Source: ChEMBL document CHEMBL1130495, “Benzoylphenoxy analogs of isoprenoid diphosphates as photoactivatable substrates for bacterial prenyltransferases” (Bioorg Med Chem Lett, 1997)
